Test results reported in PubChem BioAssay (NCI).
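48-hour exposure; five concentrations; linearly interpolated endpoints. GI50 = concentration required for 50% inhibition of growth. At the TGI there is no net growth.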

What was measured:
Experiment in all cases: NCI-60 cell line screen, 48 h
HCC-2998 colon = system: HCC-2998 colon
LOX IMVI melanoma = system: LOX IMVI melanoma
MALME-3M melanoma = system: MALME-3M melanoma
NCI-H23 lung = system: NCI-H23 lung
NCI-H522 lung = system: NCI-H522 lung
SF-539 CNS = system: SF-539 CNS
SK-MEL-28 melanoma = system: SK-MEL-28 melanoma
HOP-62 NSCLC = system: HOP-62 NSCLC
SK-OV-3 ovarian = system: SK-OV-3 ovarian
UACC-62 melanoma = system: UACC-62 melanoma

SMILES | TGI (HCC-2998 colon) | TGI (LOX IMVI melanoma) | TGI (MALME-3M melanoma) | TGI (NCI-H23 lung) | TGI (NCI-H522 lung) | TGI (SF-539 CNS) | TGI (SK-MEL-28 melanoma) | TGI (HOP-62 NSCLC) | TGI (SK-OV-3 ovarian) | TGI (UACC-62 melanoma) | GI50 (HOP-62 NSCLC) | GI50 (LOX IMVI melanoma) | GI50 (NCI-H23 lung) | GI50 (NCI-H522 lung) | GI50 (SF-539 CNS) | GI50 (SK-OV-3 ovarian) | GI50 (UACC-62 melanoma) | GI50 (HCC-2998 colon) | GI50 (MALME-3M melanoma) | GI50 (SK-MEL-28 melanoma)
CC(C)(C)NC(=O)C12C3C4C1C1C2C3C41I (stereo not given) | > 100 µM | > 100 µM | > 100 µM | > 100 µM | > 100 µM | > 100 µM | > 100 µM | – | – | – | – | – | – | – | – | – | – | – | – | –
Cn1c(=O)c2[nH]c(Nc3ccccc3)nc2n(C)c1=O | > 10 µM | > 10 µM | > 10 µM | > 10 µM | – | – | > 10 µM | > 10 µM | > 10 µM | > 10 µM | – | – | – | – | – | – | – | – | – | –
O=C1/C=C(/c2ccc(O)cc2)[C@H](O)Cc2ccc(OC3OC(CO)C(O)C(O)C3O)cc2O1 (stereo not given in full) (tested in a mixture with another compound) | – | > 100 µM | > 100 µM | > 100 µM | > 100 µM | > 100 µM | – | > 100 µM | > 100 µM | > 100 µM | – | – | – | – | – | – | – | – | – | –
COc1ccc2c(c1)C(CCN)C(=O)N2 (stereo not given) | > 100 µM | > 100 µM | > 100 µM | > 100 µM | – | > 100 µM | > 100 µM | > 100 µM | > 100 µM | > 100 µM | – | – | – | – | – | – | – | – | – | –
Cc1cc(C)c(-c2noc(-c3ccc(Cl)cc3)c2C2=NCCN2)c(C)c1 | 36 µM | 42.9 µM | 37.7 µM | 36.2 µM | – | 32 µM | 36.9 µM | 62 µM | > 100 µM | 33.8 µM | – | – | – | – | – | – | – | – | – | –
N#CC1=C(N)NC(=S)NC1c1ccc(-c2ccc(-c3nc4ccccc4s3)cc2)o1 (stereo not given) | – | 22.8 µM | – | > 50 µM | > 50 µM | 31.7 µM | – | > 50 µM | > 50 µM | > 50 µM | > 50 µM | 10.6 µM | 33.2 µM | 40.3 µM | 15.2 µM | > 50 µM | 16.1 µM | – | – | –
C=C1c2c(C)nn(-c3ccccc3)c2N(C)C23C[C@@H]1C1(C)c4c(C)nn(-c5ccccc5)c4N(C)C(C)(C[C@H]12)C3 (stereo not given in full) | > 100 µM | – | 93.5 µM | > 100 µM | 7.73 µM | > 100 µM | > 100 µM | 25.9 µM | 21.8 µM | > 100 µM | 7.15 µM | – | 7.99 µM | 2.12 µM | 26.7 µM | 4.64 µM | 4.38 µM | 6.21 µM | 4.19 µM | 22.6 µM
Cc1cc(CC(O)(C(F)(F)F)C(F)(F)F)cc(CC(O)(C(F)(F)F)C(F)(F)F)n1 | 14.2 µM | 5.79 µM | 4.3 µM | 5.31 µM | 6.35 µM | 8.71 µM | 9.54 µM | 8.79 µM | – | 12.5 µM | – | – | – | – | – | – | – | – | – | –
S=c1sc2ccccc2n1CN1CCN(Cc2ccccc2)CC1 | > 100 µM | > 100 µM | – | > 100 µM | > 100 µM | > 100 µM | – | > 100 µM | > 100 µM | > 100 µM | – | – | – | – | – | – | – | – | – | –
COc1ncn(C2C=C(CO)C(O)C2O)c(=O)n1 (stereo not given) | > 100 µM | – | > 100 µM | – | > 100 µM | > 100 µM | > 100 µM | > 100 µM | > 100 µM | > 100 µM | – | – | – | – | – | – | – | – | – | –
COc1ccccc1NC(=O)CC(=O)NNCC(=O)Nc1nc(-c2ccccc2)cs1 | – | > 100 µM | – | > 100 µM | > 100 µM | > 100 µM | > 100 µM | > 100 µM | > 100 µM | > 100 µM | – | – | – | – | – | – | – | – | – | –
Nc1nc(Cl)cc2c1ncn2C1OC(CO)C(O)C1O (stereo not given) | – | > 100 µM | > 100 µM | > 100 µM | > 100 µM | > 100 µM | > 100 µM | > 100 µM | > 100 µM | > 100 µM | > 100 µM | > 100 µM | > 100 µM | > 100 µM | > 100 µM | > 100 µM | > 100 µM | – | > 100 µM | > 100 µM
Cc1ccc(NC(=O)C(=O)C2C(=O)C3=C(CC2(C)C)NC2C=CC=CC2S3)c(C)c1 (stereo not given) | > 100 µM | > 100 µM | – | > 100 µM | > 100 µM | > 100 µM | > 100 µM | – | > 100 µM | > 100 µM | – | – | – | – | – | – | – | – | – | –
O=c1c2ccccc2oc2nccnc12 | > 100 µM | > 100 µM | > 100 µM | > 100 µM | – | > 100 µM | > 100 µM | > 100 µM | > 100 µM | > 100 µM | – | – | – | – | – | – | – | – | – | –
COC(=O)C1=C(O)C(C(=O)OC)[C@@]2(O)[C@@H](C(=O)OC)C(c3ccc(OC(=O)C(Cc4ccccc4)NC(C)=O)cc3)C[C@@H]1[C@@H]2C(=O)OC (stereo not given in full) | – | 32.2 µM | – | 48.1 µM | > 100 µM | 73.1 µM | – | 54.3 µM | > 100 µM | 40.9 µM | 22.5 µM | 18 µM | 19.9 µM | 28.3 µM | 33.6 µM | 37.5 µM | 16.1 µM | – | – | –
C=CC[n+]1c(/C=C2\Sc3ccccc3N2C)sc(-c2ccccc2)c1-c1ccccc1 | 15.7 µM | 1.54 µM | 0.672 µM | 10.9 µM | 0.76 µM | 12.5 µM | 7.72 µM | 4.75 µM | 0.92 µM | – | 0.302 µM | 0.34 µM | 0.289 µM | 0.22 µM | 0.411 µM | 0.296 µM | – | 0.401 µM | 0.253 µM | 0.421 µM
O=C(c1ccc(Cl)cc1)N(C(=S)N1CCN(c2ccccc2)CC1)C1CCCCC1 | – | > 100 µM | > 100 µM | > 100 µM | > 100 µM | > 100 µM | > 100 µM | > 100 µM | > 100 µM | > 100 µM | – | – | – | – | – | – | – | – | – | –
COC1=C(C(=O)OC(C)(C)C)C23CCCCC2(C(C(=O)OC(C)(C)C)=C(OC)C3C(=O)OC(C)(C)C)C1C(=O)OC(C)(C)C (stereo not given) | > 100 µM | > 100 µM | > 100 µM | > 100 µM | > 100 µM | > 100 µM | – | > 100 µM | > 100 µM | > 100 µM | – | – | – | – | – | – | – | – | – | –
NNC(=S)N/N=C(\c1nc2ccc(Cl)cc2[nH]c1=O)C(O)c1ccc(Cl)cc1Cl (stereo not given) | – | > 100 µM | > 100 µM | > 100 µM | > 100 µM | > 100 µM | > 100 µM | > 100 µM | > 100 µM | > 100 µM | – | – | – | – | – | – | – | – | – | –
